From patent US6331555A, “Treatment of platelet derived growth factor related disorders such as cancers” (priority 1999, dated 2001)

Tested on: C6 cells
Assay: Intracerebral C6 tumor, athymic mice, survival
Format: in vivo, rat
Conditions: IC C6, athymic mice
Protocol: FIG. 4. In two separate experiments, C6 cells (1×10^5 cells in 4 μL) were implanted into the cerebrum of BALB/c, nu/nu mice. […] V=vehicle control. n=8 to 12 (Expt #1), or 5 (Expt #2) animals per group. * P<0.00001; ** P<0.002; *** P<0.02 compared to vehicle control.
For the mouse IC model, rat C6 glioma cells were harvested and suspended in sterile PBS at a concentration of 2.5×10^7 cells/mL and placed on ice. Cells were implanted into BALB/c, nu/nu mice in the following manner: the frontoparietal scalps of mice were shaved with animal clippers if necessary before swabbing with 70% ethanol. Animals were anesthetized with isofluorane and the needle was inserted through the skull into the left hemisphere of the brain. Cells were dispensed from Hamilton Gas-tight Syringes using 30 gauge 1/2 inch needles fitted with sleeves that allowed only a 3 mm penetration. A repeater dispenser was used for accurate delivery of 4 μL of cell suspension.

With `Cc1oncc1C(=O)Nc1ccc(C(F)(F)F)cc1` [Compound A10, 5-methylisoxazole-4 carboxylic acid-(4-trifluromethyl)-anilide] the average survival time was “significantly increased compared to controls”.
